We go through 7 compounds from PubChem BioAssay (NCI).

Among the test systems are A498 renal; NCI-H226 lung; RPMI-8226 leukemia; HS 578T breast; CCRF-CEM leukemia; MCF7 breast; U251 CNS; SNB-75 CNS; UACC-62 melanoma; M14 melanoma; HOP-92 NSCLC; NCI-H522 lung; MDA-MB-231 breast; IGROV1 ovarian; K-562 leukemia; SK-MEL-5 melanoma; OVCAR-8 ovarian; NCI-H460 lung; HL-60(TB) leukemia.
Assay in all cases: NCI anticancer screen, dose series, 48 h

Each structure is given as a SMILES string.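 Exposure lasted 48 hours, with cells grown in 96-well plates and compounds tested at five concentrations. TGI is the concentration that stops growth completely.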 Some results are limits rather than exact numbers.

For `CCCCn1c2c(n(CCCC)c1=[Se])-c1c(n(CCCC)c(=[Se])n1CCCC)S[Se][Se]S2`, the TGI with A498 renal is more than 100 µM; in the test on NCI-H226 lung, 39 µM; in the test on RPMI-8226 leukemia, more than 70 µM; in the test with HS 578T breast, 80.5 µM; in the test on CCRF-CEM leukemia, 55.6 µM; with MCF7 breast, more than 69 µM. The TGI is 32.2 µM in the test with U251 CNS; 44.7 µM in the test on SNB-75 CNS; 40.7 µM with UACC-62 melanoma; more than 59.9 µM in the test with M14 melanoma; 5.93 µM in the test with HOP-92 NSCLC; 3.34 µM in the test with NCI-H522 lung. In addition, the TGI with MDA-MB-231 breast is 32.2 µM; in the test with IGROV1 ovarian, 18.5 µM; in the test on K-562 leukemia it was more than 66.9 µM; in the test with SK-MEL-5 melanoma it was 34.6 µM; in the test on OVCAR-8 ovarian it was 30.5 µM; with NCI-H460 lung it was 29 µM.

Regarding `NC(=O)N/N=C/c1ccccc1O`, the TGI in the test with A498 renal, in the test with NCI-H226 lung, in the test with RPMI-8226 leukemia, in the test on HS 578T breast, in the test with CCRF-CEM leukemia and in the test with MCF7 breast was more than 100 µM each time. Moreover, the TGI in the test with U251 CNS, in the test with SNB-75 CNS, with HL-60(TB) leukemia, with UACC-62 melanoma, in the test on M14 melanoma and in the test on HOP-92 NSCLC was more than 100 µM each time. Also, the TGI with MDA-MB-231 breast, in the test on IGROV1 ovarian, in the test with K-562 leukemia, in the test with SK-MEL-5 melanoma, in the test with OVCAR-8 ovarian and in the test on NCI-H460 lung was more than 100 µM throughout.

As to `C[C@]12CC[C@H]3[C@@H](CCC4=CC(=O)CC[C@@]43C)[C@@H]1CC[C@@H]2OC(=O)c1cccc2c(=O)c3ccccc3[nH]c12`, the TGI with A498 renal is more than 100 µM; with NCI-H226 lung, more than 100 µM; in the test on RPMI-8226 leukemia it was 87.7 µM; with HS 578T breast, more than 100 µM; in the test on CCRF-CEM leukemia, more than 100 µM; in the test on MCF7 breast, more than 100 µM. The TGI in the test on U251 CNS, in the test with SNB-75 CNS, in the test with UACC-62 melanoma, with M14 melanoma, with HOP-92 NSCLC and in the test with NCI-H522 lung was more than 100 µM throughout. Further, the TGI is more than 100 µM in the test on MDA-MB-231 breast; more than 100 µM in the test with IGROV1 ovarian; 80 µM with K-562 leukemia; more than 100 µM in the test on SK-MEL-5 melanoma; more than 100 µM in the test with OVCAR-8 ovarian; more than 100 µM in the test with NCI-H460 lung.

Turning to `CCCNC(=O)c1cc(NC(=O)c2cc(NC(=O)CCS(=O)(=O)OC)cn2C)cn1C`, the TGI in the test on A498 renal is more than 100 µM; in the test on RPMI-8226 leukemia, more than 100 µM; in the test with HS 578T breast it was more than 100 µM; in the test with CCRF-CEM leukemia, 3.67 µM; with MCF7 breast, more than 100 µM; with U251 CNS, more than 100 µM. For the same compound, the TGI was 48.4 µM in the test with SNB-75 CNS; 48.7 µM in the test on UACC-62 melanoma; more than 76.7 µM in the test with M14 melanoma; 47 µM in the test with HOP-92 NSCLC; 6.07 µM in the test with NCI-H522 lung; more than 70.8 µM in the test with MDA-MB-231 breast. Also, the TGI in the test with IGROV1 ovarian is more than 56.5 µM; in the test with K-562 leukemia, more than 100 µM; in the test with SK-MEL-5 melanoma, 44.1 µM; in the test with OVCAR-8 ovarian it was 30.3 µM; in the test with NCI-H460 lung it was more than 100 µM.

As to `CC(C)(C)OC(=O)CC(NC(=O)OC(C)(C)C)C(=O)Oc1ccc([N+](=O)[O-])cc1` (centres undefined), the TGI with A498 renal, in the test on NCI-H226 lung, in the test on RPMI-8226 leukemia, in the test on HS 578T breast, in the test on CCRF-CEM leukemia and in the test on MCF7 breast was more than 100 µM throughout. The TGI with U251 CNS is more than 100 µM; in the test on SNB-75 CNS, more than 100 µM; in the test with UACC-62 melanoma it was 65.9 µM; in the test with M14 melanoma, more than 100 µM; in the test on HOP-92 NSCLC, more than 100 µM; in the test on NCI-H522 lung, more than 100 µM. Also, the TGI with MDA-MB-231 breast, in the test on IGROV1 ovarian, in the test on K-562 leukemia, with SK-MEL-5 melanoma, in the test on OVCAR-8 ovarian and in the test on NCI-H460 lung was more than 100 µM in each case.

Take `O=C(CC(C(=O)c1cccs1)c1ccccc1)c1ccccc1O` (centres undefined): the TGI in the test with NCI-H226 lung was more than 100 µM; with RPMI-8226 leukemia it was more than 100 µM; with HS 578T breast, more than 22.9 µM; in the test with CCRF-CEM leukemia, more than 100 µM; with MCF7 breast, more than 38.7 µM; in the test with U251 CNS, more than 30.2 µM. Besides, the TGI is more than 55.7 µM in the test on SNB-75 CNS; more than 44 µM in the test on HL-60(TB) leukemia; more than 44.6 µM in the test on UACC-62 melanoma; more than 100 µM in the test with M14 melanoma; more than 38.9 µM in the test with HOP-92 NSCLC; 10.4 µM with NCI-H522 lung. Moreover, the TGI with MDA-MB-231 breast is more than 30 µM; in the test with IGROV1 ovarian, more than 57.3 µM; with K-562 leukemia it was 46.6 µM; in the test on SK-MEL-5 melanoma it was more than 100 µM; with OVCAR-8 ovarian, more than 100 µM; in the test on NCI-H460 lung, more than 100 µM.

For the compound `C=[N+](CNC(=O)CNC(=O)C(Cc1ccccc1)NC(=O)OC(C)(C)C)C(=O)CNC(=O)C(Cc1ccccc1)NC(=O)OC(C)(C)C` (centres undefined), the TGI in the test with A498 renal, with NCI-H226 lung, in the test with RPMI-8226 leukemia, with HS 578T breast, in the test with CCRF-CEM leukemia and in the test with MCF7 breast was more than 100 µM each time. Moreover, the TGI in the test on SNB-75 CNS, with UACC-62 melanoma, in the test with M14 melanoma, in the test with HOP-92 NSCLC, in the test on NCI-H522 lung and with MDA-MB-231 breast was more than 100 µM in each case. Besides, the TGI in the test on IGROV1 ovarian, in the test with K-562 leukemia, in the test on SK-MEL-5 melanoma, in the test on OVCAR-8 ovarian and with NCI-H460 lung was more than 100 µM throughout.
